Test results taken from ChEMBL document CHEMBL1150604, “Convolutindole A and convolutamine H, new nematocidal brominated alkaloids from the marine bryozoan Amathia convoluta” (2002).
Active and inactive are the calls of the source. No cut-off for these calls is given here.

How the values were obtained:
Heteropogon contortus = assay: Nematocidal activity against […] McMaster assessed as inhibition of nematode larval development after 5 days; assay type: functional
Saccharomyces cerevisiae [1] = assay: Antifungal activity against Saccharomyces cerevisiae ATCC 9763 at 200 ug/ml after 24 hrs by agar-based microtiter plate assay; assay type: functional, organism-based
Bacillus subtilis [2] = assay: Antibacterial activity against Bacillus subtilis ATCC 6633 at 100 ug/ml after 24 hrs by agar-based microtiter plate assay; assay type: functional, organism-based
Bacillus subtilis [3] = assay: Antibacterial activity against Bacillus subtilis ATCC 6633 after 24 hrs by agar-based microtiter plate assay; assay type: functional
Saccharomyces cerevisiae [4] = conditions: ATCC 9763, 50 ug/ml
Description: Antifungal activity against Saccharomyces cerevisiae ATCC 9763 at 50 ug/ml after 24 hrs by agar-based microtiter plate assay

Bacillus subtilis [5] = conditions: ATCC 6633, 50 ug/ml
Description: Antibacterial activity against Bacillus subtilis ATCC 6633 at 50 ug/ml after 24 hrs by agar-based microtiter plate assay

CNCCc1c(Br)c(Br)c(Br)c(OC)c1OC [CONVOLUTAMINE H]
LD99 (Heteropogon contortus): 0.2 µg/mL | LD99 (Saccharomyces cerevisiae [1]): inactive | LD99 (Bacillus subtilis [2]): inactive

COc1c(Br)cc(Br)c2c(CCN(C)C)c(Br)n(OC)c12 [CONVOLUTINDOLE A]
LD99 (Heteropogon contortus): 0.39 µg/mL | LD99 (Saccharomyces cerevisiae [1]): inactive | LD99 (Bacillus subtilis [3]): 50 µg/mL

c1ccc([C@H]2CN3CCSC3=N2)cc1 [LEVAMISOLE]
LD99 (Heteropogon contortus): 1.6 µg/mL | LD99 (Saccharomyces cerevisiae [4]): inactive | LD99 (Bacillus subtilis [5]): inactive
